The subject of assay [1] is planktonic cells of Staphylococcus epidermidis. The assay is described as follows: Checkerboard combination assay, planktonic cells. It is filed as cell-based. Conditions: planktonic S. epidermidis, mean MIC; for MIC alone, ATB: antibiotic alone; for MIC alone, NPs: natural product alone, in µg/mL. On the procedure: (§1) The checkerboard assay, as previously described, was used for the determination of the fractional inhibitory concentration index (FICI). Briefly, 50 µL of MHB was distributed into each well of a 96-well microplate. ATBs were serially diluted along the abscissa, and NPs were serially diluted along the ordinate. Then, 100 µL of bacterial inoculum (1.5 × 10^6 CFU/mL) was added to each well and incubated at 37°C for 24 h. The final concentration ranged from 0.125 to 128 µg/mL for ATBs and 4–512 µg/mL for NPs. After incubation, a volume of 40 µL of INT solution (0.2 mg/mL) was added to each well, and the microplate was incubated at 37°C for 30 min. The wells containing bacterial inoculum and MHB were used as a positive control, while wells containing only MHB + 1% glucose were used as a negative control and used as a blank. Viable bacteria cells change the yellow dye of INT to a pink color. The MICs were considered to be the lowest NP concentrations that prevented the color change medium. Subsequently, the FICI was calculated according to the formula FICI = (MIC of the ATBs in combination/MIC of the ATBs alone) + (MIC of a natural substance in combination/MIC of the natural substance alone). FICI values were interpreted as follows: synergy when FICI ≤ 0.5; additive when 0.5 < FICI ≤ 1; indifference when 1 < FICI ≤ 4; and antagonism when FICI > 4.

Assay [2] deals with Staphylococcus saprophyticus biofilm. As to the kind of experiment: Checkerboard combination assay, biofilm eradication. It is filed as cell-based. The gist of the method:
(§2)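 Biofilms preformed for 24 h were washed and exposed to antibiotics (0.0625–128 µg/mL) combined with NPs (4–512 µg/mL) for 24 h at 37°C in checkerboard format. Viability was read by MTT reduction to set MBEC, and FICI was calculated for the combination.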

The subject of assay [3] is Staphylococcus aureus biofilm. The assay is described as above. It is filed as cell-based. In a few lines: as §2
In assay [4] the test system is planktonic cells of Staphylococcus spp. The assay is described as follows: Checkerboard combination assay, planktonic cells, synergistic combinations (Table 3). It is filed as cell-based. The conditions noted are these: mean. As for the experimental part: as §1
The test system of another assay is S. epidermidis biofilm. As to the kind of experiment: Time-kill kinetic assay on biofilm inhibition. Conditions: at 24 h. It is filed as cell-based, Staphylococcus epidermidis. On the procedure:
The biofilm formation inhibitory activity of NPs and ATBs was carried out according to the method previously described. A total of 100 µL of bacterial inoculum (1.5 × 10^6 CFU/mL) was used, and 100 µL of each sample was added to the microplate to achieve final concentrations ranging from 0.25 µg/mL to 128 µg/mL for ATBs and from 8 µg/mL to 1024 µg/mL for NPs. Then, the microplate was incubated at 37°C for 24 h. After incubation, the plates were gently emptied and washed three times with a phosphate buffer solution at pH 7.2. Then, the MTT solution (0.5 mg/mL) prepared in PBS was introduced into each well, and the microplate was further incubated at 37°C for 24 h. Untreated wells containing bacterial suspension and MHB supplemented with 1% glucose were considered positive controls, and wells containing only MHB+1% glucose without bacteria were used as blanks. After incubation, the MTT solution was aspirated, then 150 µL of DMSO was introduced to dissolve the formazan crystal formed by viable bacteria, and the optical density (OD) was measured at 570 nm using a microplate reader (VERSA-max). The percentage of biofilm inhibition was calculated using the formula below, and the minimal biofilm inhibitory concentration (MBIC) was recorded as the lowest concentration of NPs or ATBs that inhibited 100% of biofilm:(1) % biofilm inhibition=ODcontrol−ODblank−ODtest−ODblank/ODcontrol−ODblank×100.
The five best synergistic antibiofilm combinations were selected, and their ability to inhibit biofilm formation and eradication as a function of time was evaluated at 4-h intervals for 24 h by the microtiter plate method, as previously described. The synergistic antibiofilm combinations selected were with FICI < 0.4, named C1 to C5. C1: cefixime (5.33 µg/mL) + thymol (32 µg/mL); C2: cefazolin (1.16 µg/mL) + thymol (21.33 µg/mL); C3: amikacin (0.18 µg/mL) + curcumin (37.33 µg/mL); C4: kanamycin (0.25 µg/mL) + curcumin (14 µg/mL); and C5: amoxicillin (1.16 µg/mL) + curcumin (21.33 µg/mL). The kinetics of biofilm inhibition and eradication were performed as described above for the biofilm inhibition and eradication assay using the indicated combinations, followed by the reading of the optical densities (570 nm) at 4-h intervals over 24 h (0, 4, 8, 12, 16, and 24 h). In both cases, experiments were carried out three times in triplicate.

Setting [5] is: S. saprophyticus biofilm eradication, antibiotic alone, mean MBEC.
Where [6] appears, read: S. aureus biofilm eradication, antibiotic alone, mean MBEC.
[7] abbreviates: S. aureus, biofilm eradication, mean.
Setting [8] is: S. saprophyticus, biofilm eradication, mean.
The mark [9] stands for this setting: C2 and its components (cefazolin 1.16 µg/mL, thymol 21.33 µg/mL).
Setting [10] is: C1 and its components (cefixime 5.33 µg/mL, thymol 32 µg/mL).

Values joined by “and” are separate entries in the source; they are usually repeats but may differ in a detail not shown here. Equal values may be shown once. Read-outs that look alike come from different tables or passages of the source.

With `NCC[C@H](O)C(=O)N[C@@H]1C[C@H](N)[C@@H](O[C@H]2O[C@H](CN)[C@@H](O)[C@H](O)[C@H]2O)[C@H](O)[C@H]1O[C@H]1O[C@H](CO)[C@@H](O)[C@H](N)[C@H]1O` [Amikacin, amikacin], the MIC alone, ATB in assay [1] amounted to 1.16 µg/mL. Also, the “MBEC Alone ATB” value in assay [2] (setting [5]), in assay [3] (setting [6]) and in assay [3] (setting [7]) was 13.33 µg/mL in each case. For the same molecule, in assay [4] (read-out: MIC alone, ATB), the minimum inhibitory concentration (MIC) – broadly, the smallest concentration in the dilution series that meets the test's criterion for growth inhibition – stood at 1.16 µg/mL.
Turning to `CC1(C)S[C@@H]2[C@H](NC(=O)[C@H](N)c3ccc(O)cc3)C(=O)N2[C@H]1C(=O)O` [Amoxicillin, amoxicillin], the MIC alone, ATB in assay [1] came to 26.8 µg/mL. Besides, the “MBEC Alone ATB” value in assay [2] (setting [5]) worked out at 9.33 µg/mL; in assay [3] (setting [6]) it was 37.33 µg/mL.
For the molecule `COc1ccc2cc3[n+](cc2c1OC)CCc1cc2c(cc1-3)OCO2` [Berberine, berberine], the “MBEC Alone NPs” value in assay [2] (S. saprophyticus biofilm eradication, natural product alone, mean MBEC, listed as Ber) is 128 µg/mL and 85.33 µg/mL and 106.66 µg/mL and 170.66 µg/mL; in assay [2] (setting [8]), 128 µg/mL; in assay [3] (setting [7]), 149.33 µg/mL.
`Cc1nnc(SCC2=C(C(=O)O)N3C(=O)[C@@H](NC(=O)Cn4cnnn4)[C@H]3SC2)s1` [Cefazolin, cefazolin]: the MIC alone, ATB in assay [1] was 42.7 µg/mL. Also, the “OD (570 nm), biofilm inhibition” value with S. epidermidis biofilm (setting [9]) is listed as 1.27. Moreover, the “MBEC Alone ATB” value in assay [2] (setting [5]) was 10.66 µg/mL; in assay [2] (setting [8]), 48 µg/mL; in assay [3] (setting [6]), 42.66 µg/mL; in assay [3] (setting [7]), 42.66 µg/mL.
Turning to `C=CC1=C(C(=O)O)N2C(=O)[C@@H](NC(=O)/C(=N\OCC(=O)O)c3csc(N)n3)[C@H]2SC1` [Cefixime, cefixime], the MIC alone, ATB in assay [1] is 107 µg/mL. The “OD (570 nm), biofilm inhibition” value with S. epidermidis biofilm (setting [10]) is on record as 0.84. In addition, the “MBEC Alone ATB” value in assay [2] (setting [5]) was found to be 48 µg/mL; in assay [2] (setting [8]) it was 48 µg/mL; in assay [3] (setting [6]) it was 42.66 µg/mL.
Turning to `COc1cc(/C=C/C(=O)CC(=O)/C=C/c2ccc(O)c(OC)c2)ccc1O` [Curcumin, curcumin], in assay [1], the “MIC alone, NPs” value came out at 384. The “MBEC Alone NPs” value is 170.66 µg/mL and 213.33 µg/mL in assay [2] (S. saprophyticus biofilm eradication, natural product alone, mean MBEC, listed as Cur); 128 µg/mL and 149.33 µg/mL and 170.66 µg/mL and 106.66 µg/mL in assay [3] (S. aureus biofilm eradication, natural product alone, mean MBEC, listed as Cur); 277.33 µg/mL in assay [3] (setting [7]). Also, in assay [4] (24 h, read-out: MIC alone, NPs), the MIC stood at 384 µg/mL.
As for `C[C@H]1c2cccc(O)c2C(=O)C2=C(O)[C@]3(O)C(=O)C(C(N)=O)=C(O)[C@@H](N(C)C)[C@@H]3[C@@H](O)[C@@H]21` [Doxycycline, doxycycline], the MIC alone, ATB in assay [1] came to 7 µg/mL. Also, the “MBEC Alone ATB” value in assay [2] (setting [5]) is 9.33 µg/mL; in assay [3] (setting [6]) it was 16 µg/mL. Further, in assay [4] (read-out: MIC alone, ATB), the MIC is 7 µg/mL.
For `CC[C@H]1OC(=O)[C@H](C)[C@@H](O[C@H]2C[C@@](C)(OC)[C@@H](O)[C@H](C)O2)[C@H](C)[C@@H](O[C@@H]2O[C@H](C)C[C@H](N(C)C)[C@H]2O)[C@](C)(O)C[C@@H](C)C(=O)[C@H](C)[C@@H](O)[C@]1(C)O` [Erythromycin, erythromycin], the MIC alone, ATB in assay [1] is 32.7 µg/mL. In addition, the “MBEC Alone ATB” value in assay [2] (setting [5]) is 29.33 µg/mL; in assay [2] (setting [8]), 29.33 µg/mL; in assay [3] (setting [6]), 44 µg/mL.
`O=C(O)c1cc(O)c(O)c(O)c1` [Gallic acid, 3,4,5-trihydroxybenzoic acid]: in assay [1] (listed as Gal), the “MIC alone, NPs” value was 426.66 and 277.33. Further, the “MBEC Alone NPs” value in assay [3] (S. aureus biofilm eradication, natural product alone, mean MBEC) amounted to 298.66 µg/mL. In addition, in assay [4] (24 h, read-out: MIC alone, NPs), the MIC came to 512 µg/mL.
As to `NC[C@H]1O[C@H](O[C@H]2[C@H](O)[C@@H](O[C@H]3O[C@H](CO)[C@@H](O)[C@H](N)[C@H]3O)[C@H](N)C[C@@H]2N)[C@H](O)[C@@H](O)[C@@H]1O` [Kanamycin, kanamycin], in assay [1], the MIC alone, ATB worked out at 7.33 µg/mL. The “MBEC Alone ATB” value is given as 10.66 µg/mL in assay [2] (setting [5]) and 14.66 µg/mL in assay [3] (setting [6]).
As to `CC1=CC(=O)c2c(O)cccc2C1=O` [Plumbagin, plumbagin], the “MBEC Alone NPs” value in assay [2] (setting [8]) is reported as 10.66 µg/mL.
With `O=c1c(O)c(-c2ccc(O)c(O)c2)oc2cc(O)cc(O)c12` [Quercetin, quercetin], in assay [1] (listed as Que), the “MIC alone, NPs” value is 512 and 362.66.
As for `Cc1ccc(C(C)C)c(O)c1` [Thymol, thymol], the “MIC alone, NPs” value in assay [1] is 426.66. Also, the entries for the “OD (570 nm), biofilm inhibition” value in the assay with S. epidermidis biofilm (setting [10]) and in the assay with S. epidermidis biofilm (setting [9]) were 0.67 and 0.96, respectively. Moreover, the “MBEC Alone NPs” value in assay [2] (setting [8]) is listed as 128 µg/mL. The MIC in assay [4] (24 h, read-out: MIC alone, NPs) came out at 427 µg/mL.

The record behind these values is PMC12339163, “Combining Plant Bioactives With Antibiotics for Enhanced Antibiofilm Activity Against Uropathogenic Staphylococcus spp. and Cytotoxicity Evaluation” (Advances in Pharmacological and Pharmaceutical Sciences, 2025).
